Laboratory results as given in patent US8153818B2, “Triazolyl phenyl benzenesulfonamides” (ChemoCentryx, Inc., priority 2006, dated 2012).

Biological target: T1, CCR9 (Homo sapiens, UniProt P51686)
T1 construct: chemokine expressing cells (such as THP-1 cells for CCR2 assay or MOLT-4 cells for CCR9 assay); host or cells: MOLT-4
T1 sequence (P51686 1-369): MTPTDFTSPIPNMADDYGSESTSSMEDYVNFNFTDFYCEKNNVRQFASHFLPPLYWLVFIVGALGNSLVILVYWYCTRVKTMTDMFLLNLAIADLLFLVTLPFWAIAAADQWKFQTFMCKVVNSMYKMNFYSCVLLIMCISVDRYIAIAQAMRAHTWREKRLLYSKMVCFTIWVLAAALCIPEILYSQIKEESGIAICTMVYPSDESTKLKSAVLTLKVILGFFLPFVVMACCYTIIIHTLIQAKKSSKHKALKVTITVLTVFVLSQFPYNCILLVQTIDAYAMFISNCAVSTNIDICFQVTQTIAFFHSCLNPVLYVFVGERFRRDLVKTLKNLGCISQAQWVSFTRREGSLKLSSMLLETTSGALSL
Experiment: CCR9 activity in one of the chemotaxis, binding or calcium mobilization assays
Format: cell-based
Details: assay not specified per compound
Procedure: Conventional migration assay was used to determine the efficacy of potential receptor antagonists in blocking migration mediated through chemokines (such as CCR2 or CCR9). This assay was routinely performed using the ChemoTX® microchamber system with a 5-μm pore-sized polycarbonate membrane. To begin such an assay, chemokine expressing cells (such as THP-1 cells for CCR2 assay or MOLT-4 cells for CCR9 assay) were harvested by centrifugation of cell suspension at 1000 RPM on a GS-6R Beckman centrifuge. The cell pellet was resuspended in chemotaxis buffer (HBSS with 0.1% BSA) at 10×10^6 cells/mL for CCR2 assay (5×10^6 cells/mL for CCR9 assay). Test compounds at desired concentrations were prepared from 10 mM stock solutions by serial dilutions in chemotaxis buffer. An equal volume of cells and compounds were mixed and incubated at room temperature for 15 minutes. Afterwards, 20 μL of the mixture was transferred onto the porous membrane of a migration microchamber, with 29 μL of chemokine ligand (0.1 nM chemokine MCP-1 protein for CCR2 assay or […] chemokine TECK protein for CCR9 assay) placed at the lower chamber. Following an incubation at 37° C. (90-minute for CCR2; 150-minute for CCR9), during which cells migrated against the chemokine gradient, the assay was terminated by removing the cell drops from atop the filter. To quantify cells migrated across the membrane, 5 μL of 7×CyQUANT® solution was added to each well in the lower chamber, and the fluorescence signal measured on a Spectrafluor Plus fluorescence plate reader (TECAN, Durham, N.C.). The degree of inhibition was determined by comparing migration signals between compound-treated and untreated cells. IC50 calculation was further performed by non-linear squares regression analysis using Graphpad Prism (Graphpad Software, San Diego, Calif.).
Calcium flux assay measures an increase in intracellular calcium following ligand-induced receptor activation. In the screen of chemokine antagonists, it was used as a secondary assay carried out on a FLIPR® machine (Molecular Devices, Mountain View, Calif.). To begin an assay, chemokine expressing cells (such as THP-1 cells for CCR2 assay or MOLT-4 cells for CCR9 assay) were harvested by centrifugation of cell suspension, and resuspended to 1.5×10^6 cells/mL in HBSS (with 1% fetal calf serum). Cells were then labeled with a calcium indicator dye Fluo-4 AM for 45 minutes at 37° C. with gentle shaking. Following incubation, cells were pelletted, washed once with HBSS and resuspended in the same buffer at a density of 1.6×10^6 cells/mL. One hundred microliters of labeled cells were mixed with 10 μL of test compound at the appropriate concentrations on an assay plate. Chemokine protein (MCP-1 at a final concentration of 0.1 nM for CCR2 assay or TECK at a final concentration of 25 nM for CCR9 assay) to activate the receptor. The degree of inhibition was determined by comparing calcium signals between compound-treated and untreated cells. IC50 calculations were further performed by non-linear squares regression analysis using Graphpad Prism (Graphpad Software, San Diego, Calif.). […]
In the tables below, structures and activity are provided for representative compounds described herein. Activity is provided as follows for either or both of the chemotaxis assay and/or calcium mobilization assays, described above.

Q: How did the IC50 turn out when `CCn1cnnc1-c1cc(Cl)ccc1NS(=O)(=O)c1ccc(C(C)(C)C)cc1` [Compound 31, 4-tert-butyl-N-(4-chloro-2-(4-ethyl-4H-1,2,4-triazol-3-yl)phenyl)benzenesulfonamide] was run?
A: < 1 µM

Q: With `CC(C)(C)c1ccc(S(=O)(=O)Nc2ccc(Cl)cc2-c2nncn2[C@H]2CCNC2)cc1` [Compound 32] as the compound, how does the IC50 read?
A: < 1 µM

Q: Which IC50 does the source give for `Cn1c(-c2cc(Cl)ccc2NS(=O)(=O)c2ccc(C(C)(C)C)cc2)nnc1[C@H]1CCCO1` [Compound 34] here?
A: < 1 µM

Q: How did the IC50 turn out when `CC(C)(C)c1ccc(S(=O)(=O)Nc2ccc(Cl)cc2-c2nncn2C2CCOC2)cc1` (centres unmarked) [Compound 35] was run?
A: < 1 µM

Q: `Cc1nnc(-c2cc(Cl)c(F)cc2NS(=O)(=O)c2ccc(C(C)(C)C)cc2)n1C` [Compound 36, 4-tert-butyl-N-(4-chloro-2-(4,5-dimethyl-4H-1,2,4-triazol-3-yl)-5-fluorophenyl)benzenesulfonamide] was tested. Which IC50 did it give?
A: < 1 µM

Q: For `CC(C)(C)c1ccc(S(=O)(=O)Nc2cc(F)c(F)cc2-c2nncn2[C@H]2CCNC2)cc1` [Compound 37], which IC50 is on record?
A: < 1 µM

Q: Which IC50 does the source give for `CCc1nnc(-c2cc(Cl)ccc2NS(=O)(=O)c2ccc(C(C)(C)C)cc2)n1CC` [Compound 38, 4-tert-butyl-N-(4-chloro-2-(4,5-diethyl-4H-1,2,4-triazol-3-yl)phenyl)benzenesulfonamide] here?
A: < 1 µM

Q: `CN(C)Cc1nnc(-c2cc(Cl)c(F)cc2NS(=O)(=O)c2ccc(C(C)(C)C)cc2)n1C` [Compound 39, 4-tert-butyl-N-(4-chloro-2-(5-((dimethylamino)methyl)-4-methyl-4H-1,2,4-triazol-3-yl)-5-fluorophenyl)benzenesulfonamide] was tested. Which IC50 did it give?
A: < 1 µM

Q: `Cn1c(-c2cocn2)nnc1-c1cc(Cl)ccc1NS(=O)(=O)c1ccc(C(C)(C)C)cc1` [Compound 40] was tested. Which IC50 did it give?
A: < 1 µM

Q: How did the IC50 turn out when `COCCc1nnc(-c2cc(Cl)ccc2NS(=O)(=O)c2ccc(C(C)(C)C)cc2)n1C` [Compound 41, 4-tert-butyl-N-(4-chloro-2-(5-(2-methoxyethyl)-4-methyl-4H-1,2,4-triazol-3-yl)phenyl)benzenesulfonamide] was run?
A: < 1 µM

Q: Which IC50 does the source give for `CC(C)(C)c1ccc(S(=O)(=O)Nc2cc(F)c(F)cc2-c2nncn2C2CCOC2)cc1` (centres unmarked) [Compound 42] here?
A: < 1 µM

Q: Which IC50 does the source give for `CCn1c(-c2cc(Cl)ccc2NS(=O)(=O)c2ccc(C(C)(C)C)cc2)nnc1C(C)C` [Compound 43, 4-tert-butyl-N-(4-chloro-2-(4-ethyl-5-isopropyl-4H-1,2,4-triazol-3-yl)phenyl)benzenesulfonamide] here?
A: < 1 µM

Q: How did the IC50 turn out when `CC(C)(C)c1ccc(S(=O)(=O)Nc2cc(F)c(Cl)cc2-c2nncn2C2CCCNC2)cc1` (centres unmarked) [Compound 44] was run?
A: < 1 µM

Q: Which IC50 does the source give for `CNCc1nnc(-c2cc(Cl)c(F)cc2NS(=O)(=O)c2ccc(C(C)(C)C)cc2)n1C` [Compound 45, 4-tert-butyl-N-(4-chloro-5-fluoro-2-(4-methyl-5-((methylamino)methyl)-4H-1,2,4-triazol-3-yl)phenyl)benzenesulfonamide] here?
A: < 1 µM

Q: How did the IC50 turn out when `CC(C)n1c(-c2cc(Cl)ccc2NS(=O)(=O)c2ccc(C(C)(C)C)cc2)nnc1C1CCOCC1` [Compound 46] was run?
A: < 1 µM

Q: For `CCc1nnc(-c2cc(Cl)c(F)cc2NS(=O)(=O)c2ccc(C(C)(C)C)cc2)n1C1CCOC1` (centres unmarked) [Compound 47], which IC50 is on record?
A: < 1 µM

Q: With `CCNCc1nnc(-c2cc(Cl)c(F)cc2NS(=O)(=O)c2ccc(C(C)(C)C)cc2)n1C` [Compound 48, 4-tert-butyl-N-(4-chloro-2-(5-((ethylamino)methyl)-4-methyl-4H-1,2,4-triazol-3-yl)-5-fluorophenyl)benzenesulfonamide] as the compound, how does the IC50 read?
A: < 1 µM

Q: Which IC50 does the source give for `CC(C)NCc1nnc(-c2cc(Cl)c(F)cc2NS(=O)(=O)c2ccc(C(C)(C)C)cc2)n1C` [Compound 49, 4-tert-butyl-N-(4-chloro-5-fluoro-2-(5-((isopropylamino)methyl)-4-methyl-4H-1,2,4-triazol-3-yl)phenyl)benzenesulfonamide] here?
A: < 1 µM

Q: With `Cn1c(CNC2CC2)nnc1-c1cc(Cl)c(F)cc1NS(=O)(=O)c1ccc(C(C)(C)C)cc1` [Compound 50, 4-tert-butyl-N-(4-chloro-2-(5-((cyclopropylamino)methyl)-4-methyl-4H-1,2,4-triazol-3-yl)-5-fluorophenyl)benzenesulfonamide] as the compound, how does the IC50 read?
A: < 1 µM

Q: For `COCc1nnc(-c2cc(Cl)c(F)cc2NS(=O)(=O)c2ccc(C(C)(C)C)cc2)n1C(C)C` [Compound 51, 4-tert-butyl-N-(4-chloro-5-fluoro-2-(4-isopropyl-5-(methoxymethyl)-4H-1,2,4-triazol-3-yl)phenyl)benzenesulfonamide], which IC50 is on record?
A: < 1 µM

Q: How did the IC50 turn out when `COCc1nnc(-c2cc(Cl)c(F)cc2NS(=O)(=O)c2ccc(C(C)(C)C)cc2)n1C1CCOC1` (centres unmarked) [Compound 52, 4-tert-butyl-N-(4-chloro-5-fluoro-2-(5-(methoxymethyl)-4-(tetrahydrofuran-3-yl)-4H-1,2,4-triazol-3-yl)phenyl)benzenesulfonamide] was run?
A: < 1 µM

Q: How did the IC50 turn out when `CC(C)(C)c1ccc(S(=O)(=O)Nc2cc(F)c(Cl)cc2-c2nncn2[C@@H]2CCOC2)cc1` [Compound 53] was run?
A: < 1 µM

Q: How did the IC50 turn out when `CC(C)(C)c1ccc(S(=O)(=O)Nc2cc(F)c(Cl)cc2-c2nncn2[C@H]2CCOC2)cc1` [Compound 54] was run?
A: < 1 µM

Q: How did the IC50 turn out when `Cn1c(C(N)=O)nnc1-c1cc(Cl)c(F)cc1NS(=O)(=O)c1ccc(C(C)(C)C)cc1` [Compound 55, 5-(2-(4-tert-butylphenylsulfonamido)-5-chloro-4-fluorophenyl)-4-methyl-4H-1,2,4-triazole-3-carboxamide] was run?
A: < 1 µM

Q: `CNC(=O)c1nnc(-c2cc(Cl)c(F)cc2NS(=O)(=O)c2ccc(C(C)(C)C)cc2)n1C` [Compound 56, 5-(2-(4-tert-butylphenylsulfonamido)-5-chloro-4-fluorophenyl)-N,4-dimethyl-4H-1,2,4-triazole-3-carboxamide] was tested. Which IC50 did it give?
A: < 1 µM

Q: With `Cn1c(-c2cc(Cl)c(F)cc2NS(=O)(=O)c2ccc(C(C)(C)C)cc2)nnc1C(C)(C)O` [Compound 57, 4-tert-butyl-N-(4-chloro-5-fluoro-2-(5-(2-hydroxypropan-2-yl)-4-methyl-4H-1,2,4-triazol-3-yl)phenyl)benzenesulfonamide] as the compound, how does the IC50 read?
A: < 1 µM

Q: With `CC(=O)c1nnc(-c2cc(Cl)c(F)cc2NS(=O)(=O)c2ccc(C(C)(C)C)cc2)n1C` [Compound 58, N-(2-(5-acetyl-4-methyl-4H-1,2,4-triazol-3-yl)-4-chloro-5-fluorophenyl)-4-tert-butylbenzenesulfonamide] as the compound, how does the IC50 read?
A: < 1 µM

Q: Which IC50 does the source give for `CC(O)c1nnc(-c2cc(Cl)c(F)cc2NS(=O)(=O)c2ccc(C(C)(C)C)cc2)n1C` (centres unmarked) [Compound 59, 4-tert-butyl-N-(4-chloro-5-fluoro-2-(5-(1-hydroxyethyl)-4-methyl-4H-1,2,4-triazol-3-yl)phenyl)benzenesulfonamide] here?
A: < 1 µM

Q: `C[C@H](O)c1nnc(-c2cc(Cl)c(F)cc2NS(=O)(=O)c2ccc(C(C)(C)C)cc2)n1C` [Compound 60] was tested. Which IC50 did it give?
A: < 1 µM

Q: With `C[C@@H](O)c1nnc(-c2cc(Cl)c(F)cc2NS(=O)(=O)c2ccc(C(C)(C)C)cc2)n1C` [Compound 61] as the compound, how does the IC50 read?
A: < 1 µM

Q: How did the IC50 turn out when `COCCc1nnc(-c2cc(Cl)c(F)cc2NS(=O)(=O)c2ccc(C(C)(C)C)cc2)n1C` [Compound 62, 4-tert-butyl-N-(4-chloro-5-fluoro-2-(5-(2-methoxyethyl)-4-methyl-4H-1,2,4-triazol-3-yl)phenyl)benzenesulfonamide] was run?
A: < 1 µM

Q: How did the IC50 turn out when `Cn1c(-c2cc(Cl)c(F)cc2NS(=O)(=O)c2ccc(C(C)(C)C)cc2)nnc1C1CCCOC1` (centres unmarked) [Compound 63] was run?
A: < 1 µM
